The values below come from patent US8455665B2, “3-phenoxymethylpyrrolidine compounds” (Theravance, Inc., priority 2009, dated 2013).

pIC50: −log10 of the molar value. Where two headings read alike, the source gives them in different places. Marks after values point to notes of the source that are not given here. Bounds are passed on as bounds.

For one assay, the target named is SERT (Homo sapiens, UniProt P31645). The assay is described as follows: fluorescence-based serotonin uptake assay (Tsuruda et al. 2010). It is filed as cell-based. The note with it: for IC50 / SERT pIC50: serotonin reuptake inhibition, fluorescence-based assay (data indicated by an asterisk); for IC50: read-out: SERT pIC50 (converted).
The next assay addresses NET (Homo sapiens, UniProt P23975). The assay can be described thus: fluorescence-based norepinephrine uptake assay (Tsuruda et al. 2010). It is filed as cell-based. The settings on record: for IC50 / NET pIC50: norepinephrine reuptake inhibition, fluorescence-based assay (data indicated by an asterisk); for IC50: read-out: NET pIC50 (converted).

Chain of NET (P23975 whole entry): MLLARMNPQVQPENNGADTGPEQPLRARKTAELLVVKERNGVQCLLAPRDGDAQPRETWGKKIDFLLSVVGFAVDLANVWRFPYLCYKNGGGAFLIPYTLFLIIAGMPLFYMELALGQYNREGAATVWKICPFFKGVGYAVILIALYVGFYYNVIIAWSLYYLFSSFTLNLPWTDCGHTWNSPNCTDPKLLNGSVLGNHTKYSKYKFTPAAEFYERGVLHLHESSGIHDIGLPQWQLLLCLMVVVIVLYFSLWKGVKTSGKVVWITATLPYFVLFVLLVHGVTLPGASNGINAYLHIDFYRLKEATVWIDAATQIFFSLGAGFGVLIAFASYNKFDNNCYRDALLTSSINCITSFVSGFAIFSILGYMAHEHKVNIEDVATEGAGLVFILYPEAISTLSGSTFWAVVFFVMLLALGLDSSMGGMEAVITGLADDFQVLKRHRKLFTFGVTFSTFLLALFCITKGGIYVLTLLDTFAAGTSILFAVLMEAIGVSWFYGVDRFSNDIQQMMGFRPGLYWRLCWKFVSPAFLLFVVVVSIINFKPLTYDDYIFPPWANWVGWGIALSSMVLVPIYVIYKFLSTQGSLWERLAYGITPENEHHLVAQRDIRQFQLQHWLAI
Chain of SERT (P31645 whole entry, species assumed): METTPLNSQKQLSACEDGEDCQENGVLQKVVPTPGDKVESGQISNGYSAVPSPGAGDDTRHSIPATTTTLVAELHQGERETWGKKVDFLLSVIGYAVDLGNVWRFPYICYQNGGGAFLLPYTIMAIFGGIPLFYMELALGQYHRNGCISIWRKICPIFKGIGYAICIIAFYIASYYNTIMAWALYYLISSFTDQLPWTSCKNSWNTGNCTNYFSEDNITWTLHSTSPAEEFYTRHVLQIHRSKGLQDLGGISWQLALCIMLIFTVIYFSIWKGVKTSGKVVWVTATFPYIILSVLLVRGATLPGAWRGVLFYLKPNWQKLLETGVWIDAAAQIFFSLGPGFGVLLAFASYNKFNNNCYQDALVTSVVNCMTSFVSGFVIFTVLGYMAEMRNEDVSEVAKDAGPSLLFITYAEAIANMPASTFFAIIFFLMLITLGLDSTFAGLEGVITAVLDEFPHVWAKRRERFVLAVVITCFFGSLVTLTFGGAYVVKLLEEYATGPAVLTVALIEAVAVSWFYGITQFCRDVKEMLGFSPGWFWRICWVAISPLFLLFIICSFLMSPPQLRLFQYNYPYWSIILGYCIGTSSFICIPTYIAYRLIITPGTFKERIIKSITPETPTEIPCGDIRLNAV

Regarding `CCOC[C@H](Oc1ccc(Cl)cc1F)[C@H]1CCNC1` [Example 7-21, (S)-3-[(R)-1-(4-Chloro-2-fluorophenoxy)-2-ethoxyethyl]pyrrolidine], the IC50 on SERT and on NET was not above 0.01 µM in each case.

`CCOC[C@@H](Oc1cccc(Cl)c1C)[C@H]1CCNC1` [Example 7-14, (S)-3-[(S)-1-(3-Chloro-2-methylphenoxy)-2-ethoxyethyl]pyrrolidine]: the IC50 at SERT and at NET was not above 0.01 µM throughout.

Consider `CC(C)OC[C@@H](Oc1cccc(F)c1Cl)[C@H]1CCNC1` [Example 9-11, (S)-3-[(S)-1-(2-Chloro-3-fluorophenoxy)-2-isopropoxyethyl]pyrrolidine], for which the IC50 at SERT and at NET was not above 0.01 µM each time.

Regarding `Clc1cccc(OC(COCc2ccccc2)C2CCNC2)c1Cl` [Example 10-2, ((S)-3-[(R)-2-Benzyloxy-1-(2,3-dichlorophenoxy)ethyl]pyrrolidine], the IC50 at SERT and on NET was not above 0.01 µM each time.

As for `CC(C)OCC(Oc1cccc(Cl)c1C(F)(F)F)C1CCNC1` [Example 9-20, (S)-3-[(R)-1-(3-Chloro-2-trifluoromethyl-phenoxy)-2-isopropoxycthyl]pyrrolidine], the figures for the IC50 at SERT and at NET were not above 0.1 µM and not above 0.01 µM, respectively.

Take `CCSC[C@@H](Oc1cccc(C(F)(F)F)c1)[C@H]1CCNC1.O=C(O)C(F)(F)F` [Example 17-12]: the “SERT pIC50” value on SERT is on record as “≧8.0*”. For the same compound, at NET, the “NET pIC50” value was “≧7.0*”.

Consider `CC(C)OC[C@@H](Oc1cccc(C(F)(F)F)c1)[C@H]1CCNC1` [Example 9-3, (S)-3-[(S)-2-Isopropoxy-1-(3-trifluoromethylphenoxy)ethyl]pyrrolidine], for which the IC50 is not above 0.01 µM at SERT and not above 0.1 µM at NET.

`CSC[C@@H](Oc1cccc(Cl)c1C)[C@H]1CCNC1.O=C(O)C(F)(F)F` [Example 15-6]: the “SERT pIC50” value on SERT is given as “≧8.0*”. The “NET pIC50” value at NET is on record as “≧8.0*”.

On to `CCOC[C@@H](Oc1cccc(F)c1Cl)[C@H]1CCNC1` [Example 7-10, (S)-3-[(S)-1-(2-Chloro-3-fluorophenoxy)-2-ethoxyethyl]pyrrolidine], for which the IC50 at SERT and on NET was not above 0.01 µM in each case.

Consider `CSC[C@H](Oc1cccc(F)c1Cl)[C@H]1CCNC1.O=C(O)C(F)(F)F` [Example 15-3], for which the “SERT pIC50” value on SERT is “≧8.0*”. For the same compound, the “NET pIC50” value on NET is given as “≧8.0*”.

As for `CSC[C@@H](Oc1ccc(Cl)cc1Cl)[C@H]1CCNC1.O=C(O)C(F)(F)F` [Example 15-12], the “SERT pIC50” value on SERT is recorded as “≧8.0*”. Moreover, the “NET pIC50” value at NET was “≧7.0*”.

Take `CCOC[C@@H](Oc1ccc(C#N)cc1Cl)[C@@H]1CCNC1` (stereo in doubt) [Example 7-20, 3-Chloro-4-((R)-2-ethoxy-1-(S)-pyrrolidin-3-ylethoxy)benzonitrile]: the IC50 on SERT is not above 0.01 µM; on NET, not above 0.1 µM.

As to `CCOC[C@H](Oc1ccc(Cl)cc1C(F)(F)F)[C@H]1CCNC1` [Example 7-23, (S)-3-[(R)-1-(4-Chloro-2-trifluoromethylphenoxy)-2-ethoxyethyl]pyrrolidine], the IC50 on SERT and at NET was not above 0.01 µM each time.

Turning to `CC(C)OC[C@@H](Oc1ccc(Cl)cc1Cl)[C@H]1CCNC1` [Example 9-23, (S)-3-[(S)-1-(2,4-Dichlorophenoxy)-2-isopropoxyethyl]pyrrolidine], the IC50 on SERT was not above 0.01 µM; at NET, not above 0.1 µM.

For the compound `CCOC[C@H](Oc1cccc(C(F)(F)F)c1)[C@H]1CCNC1` [Example 7-2, (S)-3-[(R)-2-Ethoxy-1-(3-trifluoromethylphenoxy)ethyl]pyrrolidine], the IC50 on SERT and at NET was not above 0.1 µM in each case.

`CCSC[C@H](Oc1ccc(Cl)cc1C(F)(F)F)[C@H]1CCNC1.O=C(O)C(F)(F)F` [Example 17-13]: at SERT, the “SERT pIC50” value is listed as “≧8.0*”. Further, on NET, the “NET pIC50” value is “≧8.0*”.

For the compound `Cc1c(Cl)cccc1O[C@H](COC(C)C)[C@H]1CCNC1` [Example 9-15, (S)-3-[(S)-1-(3-Chloro-2-methylphenoxy)-2-isopropoxyethyl]pyrrolidine], the IC50 at SERT and on NET was not above 0.01 µM each time.

Turning to `CC(C)OC[C@@H](Oc1cccc(Cl)c1Cl)[C@H]1CCNC1` [Example 9-8, (S)-3-[(S)-1-(2,3-Dichlorophenoxy)-2-isopropoxyethyl]pyrrolidine], the IC50 on SERT and at NET was not above 0.01 µM throughout.

On to `CCOC[C@H](Oc1ccc(Cl)c(Cl)c1)[C@H]1CCNC1` [Example 7-24, (S)-3-[(R)-1-(3,4-Dichlorophenoxy)-2-ethoxyethyl]pyrrolidine], for which the values for the IC50 at SERT and on NET were not above 0.01 µM and not above 0.1 µM, respectively.

On to `CCOC[C@@H](Oc1ccc(C#N)c(Cl)c1)[C@@H]1CCNC1` (stereo in doubt) [Example 7-25, 2-Chloro-4-((R)-2-ethoxy-1-(S)-pyrrolidin-3-ylethoxy)benzonitrile], for which the pIC50 on SERT was not below 8.00; at NET, not below 7.00.

With `CCOC[C@H](Oc1ccc(Cl)cc1Cl)[C@H]1CCNC1` [Example 6, (S)-3-[(R)-1-(2,4-Dichlorophenoxy)-2-ethoxyethyl]pyrrolidine], the IC50 on SERT and at NET was not above 0.01 µM throughout.

Take `CC(C)OC[C@H](Oc1cccc(F)c1Cl)[C@H]1CCNC1` [Example 9-12, (S)-3-[(R)-1-(2-Chloro-3-fluorophenoxy)-2-isopropoxyethyl]pyrrolidine]: the IC50 at SERT and at NET was not above 0.01 µM in each case.

In the case of `CC(C)OC[C@H](Oc1cccc(C(F)(F)F)c1)[C@H]1CCNC1` [Example 9-4, (S)-3-[(R)-2-Isopropoxy-1-(3-trifluoromethylphenoxy)ethyl]pyrrolidine], the IC50 on SERT and at NET was not above 0.1 µM each time.

Turning to `CC(C)SC[C@H](Oc1cccc(F)c1Cl)[C@H]1CCNC1` [Example 19-3, (S)-3-[(R)-1-(2-Chloro-3-fluorophenoxy)-2-isopropylsulfanylethyl]pyrrolidine], the IC50 at SERT and at NET was not above 0.01 µM in each case.

Regarding `Cc1cc(Cl)ccc1O[C@@H](COCc1ccccc1)[C@H]1CCNC1.O=C(O)C(F)(F)F` [Prep 3], at SERT, the “SERT pIC50” value is reported as “≧8.0*”. On NET, the “NET pIC50” value was “≧8.0*”.

For the compound `CCOC[C@H](Oc1cccc(Cl)c1C)[C@H]1CCNC1` [Example 7-13, (S)-3-[(R)-1-(3-Chloro-2-methylphenoxy)-2-ethoxyethyl]pyrrolidine], the IC50 at SERT and at NET was not above 0.01 µM each time.

Turning to `CC(C)SC[C@H](Oc1cccc(Cl)c1Cl)[C@H]1CCNC1` [Example 19-1, (S)-3-[(R)-1-(2,3-Dichlorophenoxy)-2-isopropylsulfanylethyl]pyrrolidine], the IC50 at SERT and on NET was not above 0.01 µM each time.

For `CCSC[C@H](Oc1cccc(Cl)c1C(F)(F)F)[C@H]1CCNC1` [Example 16, (S)-3-[(R)-1-(3-Chloro-2-trifluoromethylphenoxy)-2-ethylsulfanylethyl]-pyrrolidine], the IC50 on SERT and at NET was not above 0.01 µM in each case.

For `CCOC[C@H](Oc1c(Cl)cc(F)cc1Cl)[C@H]1CCNC1` [Example 7-31, (S)-3-[(R)-1-(2,6-Dichloro-4-fluorophenoxy)-2-ethoxyethyl]pyrrolidine], the IC50 was not above 0.1 µM on SERT and not above 0.01 µM on NET.

Usually pIC50 stands for −log10 of the IC50, conventionally taken in molar units. Read a low pIC50 as a high IC50.
